Legend:
[1] = molecular target: T1, human serum albumin (HSA) (Homo sapiens, UniProt P02768); experiment: fluorescence quenching/enhancement and anisotropy titrations; also equilibrium dialysis, HSA affinity chromatography, CD; type: binding; conditions: read-out: logK (Hyperquad, Figure 3) (converted)
T1 construct: gene ALB

[2] = molecular target: T1, human serum albumin (HSA); experiment: equilibrium dialysis; also fluorescence titrations and anisotropy, HSA affinity chromatography, CD; type: binding; conditions: read-out: % bound

T1 sequence (P02768 25-609): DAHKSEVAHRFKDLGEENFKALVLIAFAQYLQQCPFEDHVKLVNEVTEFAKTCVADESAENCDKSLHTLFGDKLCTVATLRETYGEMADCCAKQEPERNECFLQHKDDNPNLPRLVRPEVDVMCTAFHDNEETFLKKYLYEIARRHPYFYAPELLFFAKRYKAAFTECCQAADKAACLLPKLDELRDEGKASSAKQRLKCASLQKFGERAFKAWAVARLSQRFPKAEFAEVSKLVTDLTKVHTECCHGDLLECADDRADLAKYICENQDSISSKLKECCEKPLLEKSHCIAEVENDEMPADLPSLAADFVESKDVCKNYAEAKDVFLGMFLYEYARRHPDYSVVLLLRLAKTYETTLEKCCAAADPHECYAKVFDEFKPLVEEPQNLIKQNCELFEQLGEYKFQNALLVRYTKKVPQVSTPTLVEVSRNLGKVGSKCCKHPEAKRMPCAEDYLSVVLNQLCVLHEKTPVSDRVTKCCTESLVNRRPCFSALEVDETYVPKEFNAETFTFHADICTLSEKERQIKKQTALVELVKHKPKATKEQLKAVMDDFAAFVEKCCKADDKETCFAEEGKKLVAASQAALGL

Q: How did the Kd [1] turn out when C[C@@H]1Cc2c(Cl)cc(C(=O)N[C@H](Cc3ccccc3)C(=O)O)c(O)c2C(=O)O1 [2′R-OTA, 2′R-Ochratoxin A] was run?
A: 0.589 µM

Q: Which fraction unbound [2] does the source give for C[C@@H]1Cc2c(Cl)cc(C(=O)N[C@@H](Cc3ccccc3)C(=O)O)c(O)c2C(=O)O1 [OTA, Ochratoxin A] here?
A: < 0.004

Reference: publication PMC6070976, “Interaction of Ochratoxin A and Its Thermal Degradation Product 2′R-Ochratoxin A with Human Serum Albumin” (Toxins, 2018)
